Data set [1] concerns Rat fetal cardiomyoblast cells H9c2. Put plainly: Effect of suppressing DNA damage caused by camptothecin (γH2AX immunostaining). Format: cell-based. Conditions: camptothecin 10 μM plus compound 30 μM, cultured 24 hours. How it is done: Rat fetal cardiomyoblast cells H9c2 were maintained and cultured in a DMEM medium (10% FBS, penicillin at 100 units/mL, streptomycin at 100 μg/mL). Camptothecin (CPT) at a final concentration of 10 μM, CPT at a final concentration of 10 μM, and MA5 (racemic form, S(+) form, or R(−) form) at a final concentration of 30 μM, or DMSO (control) were added. The cells were cultured for 24 hours, then the medium was removed, and γH2AX (phosphorylated H2AX), which is an indicator for DNA damage, was detected by immunostaining. The immunostaining was carried out by using a mouse anti-γH2AX antibody (Thermo Fisher) as a primary antibody and a CF568-labeled goat anti-mouse IgG antibody (Biotium Inc.) as a secondary antibody.

The subject of data set [2] is immt-1/mitofilin mutant. Put plainly: Evaluation of mitochondrial function: mitochondrial swelling in body wall muscle cells. Format: in vivo, C. elegans. The settings on record: immt-1/mitofilin mutants, 10 μM, raised 5 days from L4 larval stage, compared with control DMSO. How it is done:
It has been reported that in immt-1-deficient mutant C. elegans (hereinafter referred to as “immt-1/mitofilin mutant”), which is a C. elegans ortholog of the mitochondrial inner membrane protein (Mitofilin), mitochondria in muscle cells swell (see the literature “Journal of Cellular Physiology. 224 (2010) 748-756” and the literature “Molecular Biology of the Cell. 22 (2011) 831-841.”). Therefore, when three compounds (racemic form of MA5, S(+) form of MA5, or R(−) form of MA5) were administered to immt-1/mitofilin mutants, whether or not mitochondrial swelling was alleviated was analyzed.
As a comparative control, ccIs4251 wild-type C. elegans (obtained from CGC [Caenorhabditis Genetics Center]) was raised on a culture plate and analyzed in the same manner.

A short description of data set [3]: In vivo administration test 2: oral administration, plasma concentrations. The settings on record: male cynomolgus monkeys, single dose 100 mg/kg. How it is done: (§1) Each enantiomer (S(+) form or R(−) form) of MA5 was dissolved in a mixed solution of physiological saline and 0.1 N sodium hydroxide (9:1), and filtered and sterilized by using a 0.22 μm filter to prepare a solution containing 2 mL/kg of each enantiomer of MA5. Next, the solution containing each enantiomer of MA5 was intravenously administered to each of three 4- to 5-year-old male cynomolgus monkeys at a single dose of 1 mg/kg. As a control, a solution containing no enantiomer of MA5 was also administered in the same manner. […] The analysis conditions for LC-MS/MS are as follows.
As an ionization unit, an apparatus in which NANOSPACESI-2 (manufactured by OSAKA SODA CO., LTD.) as a high-performance liquid chromatograph was connected to a triple quadrupole mass spectrometer (TSQ Quantum Ultra, manufactured by Thermo Fisher Scientific Inc.) equipped with an ESI probe was used. The S(+) form of MA5 (S-(+)-MA5) and the R(−) form of MA5 (R-(−)-MA5), which are substances to be analyzed, were subjected to quantitative analysis by the internal standard method using their respective stable isotopes S-(+)-MA5-d6 and R-(−)-MA5-d6. […]
The MS conditions were detected in negative ion mode, a spray voltage set to 2.5 kV, a vaporizer temperature set to 250° C., and an ion transfer tube temperature set to 250° C. […] Waveform analysis and quantitative calculation by the internal standard method were carried out by using Xcalibur (manufactured by Thermo Fisher Scientific Inc.).
In “3. […] Specifically, according to the method described in “3-1 Method” above, a solution containing each enantiomer (S(+) form or R(−) form) of MA5 was orally administered to male cynomolgus monkeys at a single dose of 100 mg/kg, the concentration of each enantiomer of MA5 and the concentration of a reduced metabolite of each enantiomer of MA5 (the compound represented by formula (B) [that is, Red-MA5]) in plasma were measured.

Data set [4] can be described thus: In vivo administration test 1: intravenous administration, plasma concentration by LC-MS/MS. Also on record: species or system cynomolgus monkeys. The settings on record: for half-life / AUC / ke: male cynomolgus monkeys, intravenous, single dose 1 mg/kg, plasma. How it is done:
as §1
As an ionization unit, an apparatus in which NANOSPACESI-2 (manufactured by OSAKA SODA CO., LTD.) as a high-performance liquid chromatograph was connected to a triple quadrupole mass spectrometer (TSQ Quantum Ultra, manufactured by Thermo Fisher Scientific Inc.) equipped with an ESI probe was used. The S(+) form of MA5 (S-(+)-MA5) and the R(−) form of MA5 (R-(−)-MA5), which are substances to be analyzed, were subjected to quantitative analysis by the internal standard method using their respective stable isotopes S-(+)-MA5-d6 and R-(−)-MA5-d6. […] AD-3R (150×2.1 mm i.d., 3.0 μm particle size, manufactured by Daicel Corporation) was used as the analytical column, and CAPCELL C8UG120 (10×2.0 mm i.d., 5.0 μm particle size, manufactured by OSAKA SODA CO., LTD.) was used as the guard column. The column oven temperature was 35° C. Formic acid/water (0.1/100 [v/v]) (solution A)/acetonitrile (solution B) was used as the mobile phase, and the flow rate was 200 μL/min. The measurement was carried out under an isocratic condition in which a single composition of solution A/solution B (57/43 [v/v]) was used for elution. Solution A/solution B (57/43 [v/v]) was used until the analysis time reached 9.5 minutes, and solution A/solution B (10/90 [v/v]) was used after the analysis time reached 9.7 minutes. In addition, a system for washing the column with solution A/solution B (10/90 [v/v]) was incorporated while the analysis time elapsed was 9.7 minutes to 11.7 minutes, and the column was equilibrated with solution A/solution B (57/43 [v/v]) while the analysis time elapsed was 11.8 minutes to 15 minutes. The retention time was 6.95 minutes for S-(+)-MA5, 6.80 minutes for S-(+)-MA5-d6, 8.69 minutes for R-(−)-MA5, and 8.56 minutes for R-(−)-MA5-d6.
The MS conditions were detected in negative ion mode, a spray voltage set to 2.5 kV, a vaporizer temperature set to 250° C., and an ion transfer tube temperature set to 250° C. The precursor ion>product ion SRM channel was set to “m/z 328.0>116.2” for MA5 and “m/z 334.0>121.1” for MA5-d6. The collision energy for generating a product ion was set to 12 eV for MA5 and 17 eV for MA5-d6. Waveform analysis and quantitative calculation by the internal standard method were carried out by using Xcalibur (manufactured by Thermo Fisher Scientific Inc.).

The mark [5] stands for this setting: cynomolgus monkey, read-out: AUC value.

“Also recorded” adds a separate entry of the source. Read-outs that look alike come from different tables or passages of the source.

We go through two molecules from patent US20240270692A1, “S(+) FORM OF 4-(2,4-DIFLUOROPHENYL)-2-(1H-INDOL-3-YL)-4-OXO-BUTANOIC ACID” (TOHOKU UNIVERSITY, priority 2021, published 2024).

Usually half-life stands for the time needed for the level to fall by half in the phase considered. A higher half-life goes with slow loss. The term AUC denotes concentration integrated over time.

For the molecule `O=C(C[C@H](C(=O)O)c1c[nH]c2ccccc12)c1ccc(F)cc1F` [S(+) form of MA5, 4-(2,4-difluorophenyl)-2-(1H-indol-3-yl)-4-oxo-butanoic acid], in data set [1], the “fluorescence intensity of γH2AX (phosphorylated H2AX)” value was “a decrease in the fluorescence intensity of phosphorylated H2AX was observed; also recorded: the level of γH2AX was low”. Further, in data set [2], the “number of swelling mitochondria per body wall muscle cell” value is given as “greatly decreased” and the “proportion of body wall muscle cells in which 5 or more swelling mitochondria per body wall muscle cell were observed” value was “greatly decreased”. Besides, in data set [3], the “concentration in plasma after oral administration” value is listed as “higher than that of the R(−) form of MA5 in plasma” and the “reduced metabolite (Red-MA5) in plasma” value is on record as “almost no reduced metabolite was detected”. Besides, the “R(−) form of MA5 in plasma after administration of the S(+) form (chiral conversion in vivo)” value in data set [4] (5 minutes to 24 hours after intravenous administration, cynomolgus monkeys) was “not detected”. The half-life in data set [4] (cynomolgus monkey) is 2.4 h. For the same molecule, the AUC in data set [4] (setting [5]) was found to be 30000 ng·h/mL. Further, the “more likely to be retained in blood than the R(−) form of MA5” value in data set [4] (from AUC values, intravenous 1 mg/kg, cynomolgus monkeys) was determined as 2.5 times. In data set [4], this molecule showed an AUC of 30000 ng·h/mL and a ke of 0.29 h⁻¹.

For `O=C(C[C@@H](C(=O)O)c1c[nH]c2ccccc12)c1ccc(F)cc1F` [R(−) form of MA5, 4-(2,4-difluorophenyl)-2-(1H-indol-3-yl)-4-oxo-butanoic acid], the “fluorescence intensity of γH2AX (phosphorylated H2AX)” value in data set [1] is given as “not observed”. Besides, in data set [2], the “number of swelling mitochondria per body wall muscle cell” value was “remained almost unchanged or only slightly decreased” and the “proportion of body wall muscle cells in which 5 or more swelling mitochondria per body wall muscle cell were observed” value is listed as “remained almost unchanged or only slightly decreased”. In data set [3], the “reduced metabolite (Red-MA5) in plasma” value is given as “detected”. The same molecule had a half-life in data set [4] (cynomolgus monkey) of 1.1 h. Besides, the AUC in data set [4] (setting [5]) was determined as 12000 ng·h/mL. In data set [4], this molecule showed an AUC of 12000 ng·h/mL and a ke of 0.63 h⁻¹.
